Source: patent US9616082B2, “Antitumor agent including irinotecan hydrochloride hydrate” (TAIHO PHARMACEUTICAL CO., LTD., priority 2013, dated 2017)
Structures can show the parent of a compound that is named as a salt.

How the values were obtained:
[1] = tested on: colorectal cancer; assay: Combination therapy in a colorectal cancer patient, 28-day cycle schedule; format: in vivo, human; settings: 28-day cycle: FTD/TPI two times 5-days' administration with 2-days' rest then 2 weeks rest, CPT-11 once in 2 weeks, side effects appeared strongly
Method: In view of this situation, when a combination therapy comprising repeating a 28-day cycle consisting of two times of 5-days' administration with 2-days' rest of an FTD/TPI combination drug, followed by rest of the drug administration for 2 weeks, and an administration of CPT-11 once in 2 weeks was performed in a colorectal cancer patient on the basis of an administration schedule in which effects of each drug have previously been reported as in Reference Example described later, only about 30% of the predetermined amount of CPT-11 could be administered because side effects appeared strongly. Since antitumor effect is generally proportional to the total dose, the present inventors have studied on administration schedule which can suppress the occurrence of side effects and in which a predetermined amount can be administered.

[2] = tested on: human gastric cancer cell line (SC-2); assay: Combined administration test, SC-2 tumor (Example 2); settings: CPT-11 100 mg/kg/day, Day 1, 15, i.v., q.d.; on Day 15
[3] = tested on: human colon cancer cell line (KM20C); assay: Survival of mice intraperitoneally transplanted with KM20C (Reference Example); format: in vivo, BALB/cA Jcl-nu mice; settings: i.v., weekly; for ILS (increase in life span): 6 weeks from Day 3; for Survival time (day) Mean ± SD: 6 weeks from Day 3, n=10
Method: Cultured cells (1×10^7 cells/mouse) of human colon cancer cell line (KM20C) were intraperitoneally transplanted into 5-6 weeks old BALB/cA Jcl-nu mice after birth, and the mice were assigned to each group so that the mean body weight of each group became equal. The date on which such grouping (n=10) was performed was taken as Day 0.
[…]. Starting the dug administration from Day 3, a 5-days' daily oral administration of the FTD/TPI combination drug with 2-days' rest was performed for 6 weeks, and CPT-11 was administered once in a week from the tail vein for 6 weeks.
As an index of the antitumor effect, the number of survivors of each group of mice and the survival time of each group was compared.

[4] = Kiso to Rinsho, (1990), Vol. 24, No. 14, 7-17; cited from earlier work

CCc1c2c(nc3ccc(OC(=O)N4CCC(N5CCCCC5)CC4)cc13)-c1cc3c(c(=O)n1C2)COC(=O)[C@]3(O)CC [CPT-11, irinotecan hydrochloride hydrate]
share of the predetermined amount of CPT-11 that could be administered [1]: about 30% | TGI (tumor growth inhibition rate) [2]: 78.2% | ILS (increase in life span) ([3]; CPT-11 80 mg/kg/day): 54.0% | Survival time (day) Mean ± SD ([3]; CPT-11 80 mg/kg/day): 61.6 ± 12.6 days | ILS (increase in life span) ([3]; CPT-11 100 mg/kg/day): 81.3% | Survival time (day) Mean ± SD ([3]; CPT-11 100 mg/kg/day): 72.5 ± 12.3 days | dose at which a death case was reported [4]: 111 mg/kg/day
